Reference: patent publication US20100173780A1, “POLYPHENOL-CONTENT-[…] FOR PLANT” (COSMO OIL CO., LTD., priority 2006, published 2010)

How the values were obtained:
tea = assay: Amount of polyphenol in tealeaf after ALA treatment (HPLC); format: in vivo, tea (Camelliaceae, genus camellia, race Yabukita); settings: 3 ppm
Description: (§1) Two containers (length: 0.75 m, width 0.5 m) were provided and soil was placed in each of them. A Chemical fertilizer (nitrogen content:phosphorus content:potassium content=15:15:15 as mass ratio) was used as a base fertilizer and young plants of green pepper (Solanaceae, genus cayenne, race Miogi) were grown for two months according to a conventional method. Water was applied to the young plants once a day by means of a sprinkling can. Prior to one month from harvest, treatment was conducted once a week with 50 mL per container of each aqueous solution containing 0 ppm (control) or 1 ppm of 5-aminolevulinic acid hydrochloride to which a spreading agent, Approach BI (manufactured by Kao Corporation) had been added in a ratio of 0.1% by mass. After harvest, 3 g of green pepper was finely cut with scissors and a kitchen knife and then homogenized after addition of water. The homogenized one was diluted up to 6 mL with distilled water (stock solution) and the stock solution was divided into three even portions and used in the following extraction methods (1) to (3). (1) Three mL of ethyl acetate was added to 2 mL of the stock solution and the resultant one was centrifuged at 3000 rpm for 10 minutes. The supernatant was transferred to a spit tube and was evaporated to dryness with nitrogen gas while the tube was immersed in a warm bath at about 60° C. Thereto were added 200 μL of methanol and 100 μL of distilled water, thereby the volume being made 300 μL. (2) Two mL of methanol was added to 2 mL of the stock solution and the resultant one was centrifuged at 3000 rpm for 10 minutes. The supernatant was transferred to a spit tube and was evaporated to dryness with nitrogen gas while the tube was immersed in a warm bath at about 60° C. Thereto were added 200 μL of methanol and 100 μL of distilled water, thereby the volume being made 300 μL. (3) One mL of 0.1N hydrochloric acid was added to 2 mL of the stock solution and the resultant one was transferred to a plastic tube and kept in a drive-lock bath at 96.5° C. for 1 hour to effect hydrolysis. Five mL of ethyl acetate was added thereto and the resultant one was centrifuged at 3000 rpm for 10 minutes. The supernatant was transferred to a spit tube and was evaporated to dryness with nitrogen gas while the tube was immersed in a warm bath at about 60° C. Thereto were added 200 μL of methanol and 100 μL of distilled water, thereby the volume being made 300 μL. The samples from (1) to (3) were measured by high-performance liquid chromatography (HPLC) (analytical conditions: the measurement was performed at a flow rate of 1.0 mL/min at a column temperature of 40° C. using a wavelength of 350 nm, using Liquid A (80% by volume of methanol/5% by volume of acetic acid) or Liquid B (10% by volume of methanol/5% by volume of acetic acid) as an eluent, and using a column of Hichrom5C18, T898, 4.6 mm×[…] (manufactured by LLOYD′S REGISTER QUALITY COMPANY) and each concentration was calculated based on standard solutions. In Table 1, the most highly extracted value was cited among the results measured with each of the extraction methods (1) to (3). Moreover, the sum of individual concentration of polyphenol used in this time was regarded as the total amount of polyphenol.
Prior to 210 days from harvest, treatment to tea (Camelliaceae, genus camellia, race Yabukita) grown in a production farm field was conducted once a month with a spraying amount of 100 L/tan of each aqueous solution containing 0 ppm (control) or 3 ppm of 5-aminolevulinic acid hydrochloride. After harvest, the content of polyphenol was analyzed by HPLC in the same manner as in Example 1.

asparagus = assay: Amount of polyphenol in asparagus after ALA treatment (HPLC); format: in vivo, asparagus (Liliaceae, genus asparagus, race Welcome); settings: 3 ppm
Description: as §1
Prior to 150 days from harvest, treatment to tetraennial-root asparagus (Liliaceae, genus asparagus, race Welcome) grown in a vertical stem form in a greenhouse was conducted once a fortnight with a spraying amount of 100 L/tan of each solution containing 0 ppm (control) or 3 ppm of 5-aminolevulinic acid hydrochloride. After harvest, the content of polyphenol was analyzed in the same manner as in Example 1.

parsley = assay: Amount of polyphenol in parsley after ALA treatment (HPLC); format: in vivo, parsley (Umbelliferae, genus parsley, race Paramount); settings: 1 ppm
Description: as §1
(§2) Two containers (length: 0.75 m, width 0.5 m) were provided and soil was placed in each of them. A Chemical fertilizer (nitrogen content:phosphorus content:potassium content=15:15:15 as mass ratio) was used as a base fertilizer and seeds of parsley (Umbelliferae, genus parsley, race Paramount) were planted according to a conventional method and water was applied once a day by means of a sprinkling can. Prior to one month from harvest, treatment was conducted once a week with 50 mL per container of each aqueous solution containing 0 ppm (control) or 1 ppm of 5-aminolevulinic acid hydrochloride. After harvest, the content of polyphenol was analyzed in the same manner as in Example 1.

pepper = assay: Amount of polyphenol in pepper after ALA treatment (HPLC); format: in vivo, pepper (Solanaceae, genus cayenne; settings: pepper (race Habanero), 1 ppm
Description: as §1
as §2, with “young plants” for “seeds”, “pepper (Solanaceae,” for “parsley (Umbelliferae,”, “cayenne,” for “parsley,”, “Habanero)” for “Paramount)”

[1] = 100 L/tan once a month from 210 days before harvest, HPLC
[2] = greenhouse, 100 L/tan once a fortnight from 150 days before harvest, HPLC
[3] = 50 mL per container once a week from one month before harvest, HPLC
[4] = 50 mL per container once a week from one month before harvest, sum of the individual polyphenols
[5] = 50 mL per container once a week, versus 0 ppm control

Structure (SMILES): Cl.NCC(=O)CCC(=O)O [ALA, 5-aminolevulinic acid hydrochloride]
- Kaempferol amount in tealeaf (tea; [1]): 970 ng/g
- Luteolin amount in tealeaf (tea; [1]): 2181 ng/g
- Quercetin amount in tealeaf (tea; [1]): 8249 ng/g
- Rutin amount in tealeaf (tea; [1]): 4519 ng/g
- Total amount of polyphenol in tealeaf (tea; 100 L/tan once a month from 210 days before harvest, sum of the individual polyphenols): 67248 ng/g
- ALA/control ratio of total amount of polyphenol in tealeaf (tea; 100 L/tan once a month, versus 0 ppm control): 1.1
- ALA/control ratio of total amount of polyphenol in asparagus (asparagus; 100 L/tan once a fortnight, versus 0 ppm control): 2.3
- Apigenin amount in asparagus (asparagus; [2]): 456 ng/g
- Caffeic acid amount in asparagus (asparagus; [2]): 0 ng/g
- Chlorogenic acid amount in asparagus (asparagus; [2]): 2983 ng/g
- Ferulic acid amount in asparagus (asparagus; [2]): 9899 ng/g
- Hesperetin amount in asparagus (asparagus; [2]): 20198 ng/g
- Isorhamnetin amount in asparagus (asparagus; [2]): 1022 ng/g
- Kaempferol amount in asparagus (asparagus; [2]): 723 ng/g
- Luteolin amount in asparagus (asparagus; [2]): 1923 ng/g
- Quercetin amount in asparagus (asparagus; [2]): 5533 ng/g
- Rutin amount in asparagus (asparagus; [2]): 40234 ng/g
- Total amount of polyphenol in asparagus (asparagus; greenhouse, 100 L/tan once a fortnight from 150 days before harvest, sum of the individual polyphenols): 82971 ng/g
- Apigenin amount in parsley (parsley; [3]): 1099 ng/g
- Caffeic acid amount in parsley (parsley; [3]): 4240 ng/g
- Chlorogenic acid amount in parsley (parsley; [3]): 20820 ng/g
- Ferulic acid amount in parsley (parsley; [3]): 0 ng/g
- Hesperetin amount in parsley (parsley; [3]): 110685 ng/g
- Isorhamnetin amount in parsley (parsley; [3]): 4388 ng/g
- Kaempferol amount in parsley (parsley; [3]): 10321 ng/g
- Luteolin amount in parsley (parsley; [3]): 2733 ng/g
- Quercetin amount in parsley (parsley; [3]): 37699 ng/g
- Rutin amount in parsley (parsley; [3]): 28977 ng/g
- Total amount of polyphenol in parsley (parsley; [4]): 220962 ng/g
- ALA/control ratio of total amount of polyphenol in parsley (parsley; [5]): 3.5
- Apigenin amount in pepper (pepper; [3]): 2570 ng/g
- Caffeic acid amount in pepper (pepper; [3]): 5520 ng/g
- Chlorogenic acid amount in pepper (pepper; [3]): 18020 ng/g
- Ferulic acid amount in pepper (pepper; [3]): 9270 ng/g
- Hesperetin amount in pepper (pepper; [3]): 0 ng/g
- Isorhamnetin amount in pepper (pepper; [3]): 270 ng/g
- Kaempferol amount in pepper (pepper; [3]): 0 ng/g
- Luteolin amount in pepper (pepper; [3]): 62060 ng/g
- Quercetin amount in pepper (pepper; [3]): 26700 ng/g
- Rutin amount in pepper (pepper; [3]): 457080 ng/g
- Total amount of polyphenol in pepper (pepper; [4]): 581490 ng/g
- ALA/control ratio of total amount of polyphenol in pepper (pepper; [5]): 1.4
